Experimental data: patent US20230203485A1, “METHODS FOR MODULATING MHC-I EXPRESSION AND IMMUNOTHERAPY USES THEREOF” (Dana-Farber Cancer Institute, Inc., priority 2020, published 2023)

Tested on: class I bound peptides
Assay: HLA-I immunoprecipitation and LC-MS/MS immunopeptidome of cell lines +/- IFN-γ
Assay type: cell-based, human
Description: Up to 40 million or 0.2 g of MCC cells were immunoprecipitated. Briefly, MCC cells were harvested and lysed in ice-cold lysis buffer containing […] (pH 8.0), 1 mM EDTA (pH 8.0), 0.1M sodium chloride, Triton X-100, 0.06M octyl β-d-glucopyranoside, 100 U/mL DNAse I, 1 mM phenylmethanesulfonyl fluoride (all from Sigma Aldrich), and protease inhibitor cocktail (Roche Diagnostics). Cell lysate was centrifuged at 12,700 rpm at 4° C. for 22 min. Lysate supernatant was coupled with Gammabind Plus sepharose beads (GE Healthcare) and incubated with 10 μg of HLA-I antibody (Clone W6/32, Santa Cruz Biotechnologies) at 4° C. under rotary agitation for 3 h. After incubation, the lysate-bead-antibody mixture was briefly centrifuged and the supernatant was discarded. Beads were washed with lysis buffer, consisting of wash buffer containing 40 mM Tris (pH 8.0), 1 mM EDTA (pH 8.0), 0.1M sodium chloride, 0.06M octyl β-d-glucopyranoside, and 20 mM Tris buffer, without protease inhibitors. […] Peptides of up to three immunoprecipitations were combined, acid eluted, and analyzed using LC/MS-MS. […] Peptides were eluted in a 6-30% gradient (EasyLC 1000 or 1200, Thermo Fisher Scientific) and analyzed on a QExactive Plus, Fusion Lumos, or Orbitrap Exploris 480 (Thermo Fisher Scientific). […] Fractions were analyzed on a Fusion Lumos or Orbitrap Exploris 480 equipped with a FAIMSpro interface. […]

IFN-γ: interferon gamma used to stimulate MCC cell lines
median fold increase in the abundance of class I bound peptides (across 7 cell lines, following IFN-γ stimulation): 12 fold | frequencies of peptides mapping to each HLA allele (cell lines with vs without IFN-γ treatment): increase in HLA-B-presented peptides
